# Experimental data taken from article PMC8840081, “Phenylalanine-Based AMPA Receptor Antagonist as the Anticonvulsant Agent with Neuroprotective Activity—In Vitro and In Vivo Studies” (Molecules, 2022).
# Key:
# [1] = test system: PTZ-induced clonic seizures in mice; experiment: PTZ seizure test; type: in vivo; conditions: PTZ 100 mg/kg s.c.; compound 100 mg/kg i.p.
# Protocol: (§1) Behavioral experiments were carried out in male Albino Swiss (CD-1) mice weighing 18–22 g. The mice were kept in cages, in groups of 10 animals. They had free access to food and water before experiments, and were maintained at room temperature 22–24 °C, under 12:12 (light/dark) cycle. For the assays the animals were selected randomly. After the experiments the animals were euthanized by cervical dislocation. Experimental procedures for in vivo tests were approved by the Local Ethics Committee of the Jagiellonian University in Krakow (Approval No. 33/2018; release date: 1.02.2018) and the treatment of animals was performed in full accordance with ethical standards laid down in respective Polish and EU regulations (Directive 2010/63/EU).
# Oxaliplatin was purchased from Activate Scientific GmbH (Prien, Germany). PTZ and STZ were provided by Merck KGaA (Darmstadt, Germany). For the in vivo tests, the compound 1 was suspended in 1% Tween 80 solution (Polskie Odczynniki Chemiczne, Gliwice, Poland), then being administered intraperitoneally 1 h before tests. […]
# This test was carried out according to the method recently described. […] In this assay the latency to the occurrence of the first clonic seizure episode was measured and compared in drug-treated and control mice. […] The number of seizure episodes was also recorded in each group. • 6-Hz Test
# [2] = test system: cold hyperalgesia in oxaliplatin-treated mice; experiment: oxaliplatin-induced neuropathic pain model, cold plate test; type: in vivo; conditions: 10 and 30 mg/kg i.p., early and late phase
# Protocol: as §1
# Oxaliplatin was purchased from Activate Scientific GmbH (Prien, Germany). PTZ and STZ were provided by Merck KGaA (Darmstadt, Germany). For the in vivo tests, the compound 1 was suspended in 1% Tween 80 solution (Polskie Odczynniki Chemiczne, Gliwice, Poland), then being administered intraperitoneally 1 h before tests. For the evaluation of anticonvulsant properties of the test compound, a fixed dose of 100 mg/kg, was used. Since many AEDs at lower doses are used as analgesic drugs, for pain tests the doses 10 and 30 mg/kg were selected. […]
# The effect of 1 on cold pain threshold was assessed using the cold plate test. […]
# [3] = molecular target: T1, Human MAO-B (Homo sapiens, UniProt P27338); experiment: MAO-B inhibition, Amplex Red Monoamine Oxidase kit; type: biochemical
# T1 construct: purchased Merck KGaA (Darmstadt, Germany)
# T1 sequence (P27338 1-520): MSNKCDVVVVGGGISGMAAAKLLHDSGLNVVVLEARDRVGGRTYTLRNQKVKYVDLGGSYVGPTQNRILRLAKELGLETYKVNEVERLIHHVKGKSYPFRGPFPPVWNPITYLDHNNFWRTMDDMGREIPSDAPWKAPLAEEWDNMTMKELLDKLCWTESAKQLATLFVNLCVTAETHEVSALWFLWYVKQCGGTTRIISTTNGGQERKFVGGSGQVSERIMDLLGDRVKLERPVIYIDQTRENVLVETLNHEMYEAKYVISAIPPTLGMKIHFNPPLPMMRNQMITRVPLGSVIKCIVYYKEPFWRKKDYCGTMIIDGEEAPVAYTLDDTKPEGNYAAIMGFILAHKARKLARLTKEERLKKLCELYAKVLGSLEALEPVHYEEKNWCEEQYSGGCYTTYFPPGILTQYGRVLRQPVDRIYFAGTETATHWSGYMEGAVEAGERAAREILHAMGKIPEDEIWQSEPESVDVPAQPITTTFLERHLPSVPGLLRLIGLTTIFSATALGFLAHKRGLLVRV
# Protocol: Human MAO-B was purchased from Merck KGaA (Darmstadt, Germany). The activity of compound 1 and 8 was measured in the presence of p-tyramine (200 μM). […] Firstly, inhibitors’ activity was measured in a concentration of 1 μM. […] For compounds that inhibited the enzyme by more than 50% further studies were conducted to obtain IC50 from concentration–response curves. All calculations were made in Microsoft Excel and GraphPadPrism software. All experiments were performed in duplicate and data are expressed as mean ± SEM.
# [4] = test system: native AMPA receptors; conditions: cited from earlier work
# [5] = oxygen radical absorbance capacity fluorescent (ORAC-FL) assay; conditions: Trolox equivalent, calculated at 5 µM of compounds and Trolox
# Protocol: The ORAC-FL was performed according to procedure described in the literature. The reagents used in this assay, TX, fluorescein and 2,2′-azobis(2-amidinopropane) dihydrochloride (AAPH), were purchased from Sigma-Aldrich, Inc., St. Louis, MO, USA. The prepared ORAC-FL reagent consisted of 0.3 μM of fluorescein and 100 µM of AAPH dissolved in PBS buffer. The compounds and the reference antioxidant TX were tested at the concentration 2.5 µM and the results were compared to the blank in which no antioxidant was present. The assays were performed in black 96-well plates. The fluorescence readings were taken by a microplate reader EnSpire (PerkinElmer, Waltham, MA, USA) every minute for a duration of 240 min. The excitation wavelength was 485 nm and the emission wavelength was 520 nm. The area under the fluorescence decay curve (AUC) was calculated next by GraphPad Prism™ software (version 5.01, San Diego, CA, USA). All measurements were performed in triplicate. The TX equivalent (TE) was calculated next using the following Equation (1):TE = [(AUCsample − AUCblank)/(AUCTX − AUCblank)] × [CTX/Csample](1)
smiles,measurement,setting,value
NC(Cc1cc(-c2cc(O)ccc2O)c(Cl)c([N+](=O)[O-])c1)C(=O)O (stereo not drawn) [Compound 1],latency to first clonus,[1],not able to prolong latency to the first clonus
same,number of seizure episodes,[1],remained unaffected
same,"effect on cold hyperalgesia, cold plate test",[2],unable to attenuate cold hyperalgesia
same,maximum MAO-B inhibition attained,[3]; dose-dependent curve,52%
same,IC50,[3]; p-tyramine 200 μM,278 ± 29 nM
same,inhibition at 1 µM,"[3]; read-out: MAO-B inhibition, screening",> 50%
same,selectivity over NMDA and KA receptors,[4],high selectivity
same,Ki,"[4]; native AMPA receptors, rat brain membranes, mean of three experiments, read-out: [3H]AMPA Ki",920 nM
same,ORAC (TE),[5],3.46 TE
